Assay results: patent US20220062279A1, “TREATMENT OF MOVEMENT DISORDERS” (Contera Pharma A/S, priority 2018, published 2022)

Legend:
[1] = tested on: unilaterally 6-OHDA-lesioned rats; assay: L-DOPA induced AIMs test in the 6-OHDA rat model; format: in vivo; details: previously shown by the applicant
Parkinson's disease = details: cited from earlier work
[2] = tested on: rats' motor performance and coordination; assay: Rotarod test; details: buspirone 0.1-30 mg/kg i.p., pentobarbital 15 mg/kg i.p., 5 or 30 min before test; compared to vehicle
locomotor activity = assay: Open field test; details: buspirone 0.1-30 mg/kg i.p., pentobarbital 15 mg/kg i.p.; 60 minutes observation period; compared to vehicle
LID = details: cited from earlier work

SMILES	L-DOPA-induced involuntary movements [1]	disability ratings (Parkinson's disease; 100 mg/day)	dyskinesia (Parkinson's disease; 100 mg/day)	effects on Parkinson's disease or dyskinesia (Parkinson's disease; 10-60 mg/day)	Rotarod performance (time spent on the accelerating rod) [2]	Open field performance (locomotor activity) (locomotor activity)	effects compared to placebo (LID; phase 2b and 3 studies)	LID (LID; pre-clinical and clinical studies)
O=C1CC2(CCCC2)CC(=O)N1CCCCN1CCN(c2ncccn2)CC1 [buspirone, 8-[4-(4-pyrimidin-2-ylpiperazin-1-yl)butyl]-8-azaspiro[4.5]decane-7,9-dione]	dose dependently reduce L-DOPA-induced involuntary movements	significant worsening of disability ratings	reduced dyskinesia	did not have any effects on Parkinson's disease or dyskinesia	affect performance in the rotarod model in a dose dependent manner	dose dependently is able to affect performance in the open field test	–	–
CCCC(C)C1(CC)C(=O)NC(=O)NC1=O (stereo not shown) [Pentobarbital]	–	–	–	–	significantly reduces time spent on the rotarod	significantly reduced motor performance	–	–
Fc1ccc(-c2cncc(CNC[C@H]3CCc4ccccc4O3)c2)cc1 [sarizotan, 1-[(2R)-3,4-dihydro-2H-chromen-2-yl]-N-([5-(4-fluorophenyl)pyridin-3-yl]methyl)methanamine]	–	–	–	–	–	–	no significant effects	reduced LID
